{
  "source": "patent US11382927B2",
  "about": "“Liquid medicinal preparation” (FUJIFILM Corporation, priority 2016, dated 2022)",
  "origin": "cited, not measured here",
  "test_system": "tumor",
  "details": "oral administration to mice",
  "data": [
    {"molecule": "Nc1ccn([C@@H]2S[C@H](CO)[C@@H](O)[C@@H]2F)c(=O)n1", "note": "[Compound A, 1-(2-deoxy-2-fluoro-4-thio-β-D-arabinofuranosyl)cytosine]", "values": [
      {"measurement": "Antitumor activity", "value": "strong antitumor activity"}
    ]}
  ]
}
